Laboratory results taken from article PMC8933034, “6-Amino-2,4,5-trimethylpyridin-3-ol and 2-amino-4,6-dimethylpyrimidin-5-ol derivatives as selective fibroblast growth factor receptor 4 inhibitors: design, synthesis, molecular docking, and anti-hepatocellular carcinoma efficacy evaluation” (Journal of Enzyme Inhibition and Medicinal Chemistry, 2022).
Where “and” joins values, the source holds several entries; their conditions need not be identical. Equal entries are not always repeated. Blank lines part the entries; values can stand above or below the compound they belong to.

Tests used:
[1] = tested on: Hep3B cells; assay: Cell proliferation assay (MTT), Hep3B; assay type: cell-based, human; settings: for IC50: Homo sapiens, Hep3B, 48 h treatment, mean ± SEM of three independent experiments
Experimental: (§1) Human HCC cell lines, Hep3B and Huh7 were obtained from American Type Culture Collection (ATCC, Manassas, VA, USA). An H6c7 human normal pancreatic duct epithelial cell line was purchased from Kerafast (Boston, MA, USA). Hep3B and Huh7 cells were cultured in Dulbecco′s Modified Eagle′s Medium (DMEM) (Hyclone, Logan, UT, USA). The media were supplemented with 10% foetal bovine serum (FBS) (Gibco/ThermoFisher Scientific) and 1% penicillin/streptomycin (Gibco/ThermoFisher Scientific). H6c7 cells were maintained in a keratinocyte serum-free medium supplemented with a recombinant […] growth factor (rEGF) and bovine pituitary extract (Gibco/ThermoFisher Scientific). All the cells were incubated at 37 °C under a 5% CO2 atmosphere.
(§2) Cells were seeded at a density of 5000 cells/well in a 96-well plate. After overnight incubation, the cells were serum-starved using 1% FBS for 24 h. The next day, the cells were pre-treated with the different concentrations (0.1, 1, 3, 10, 30, 100 µM) of drugs for 1 h prior to the treatment with serum (10% FBS). After 48 h of incubation, 3–(4,5-dimethylthiazol-2-yl)-2,5-diphenyltetrazolium bromide (MTT) dye solution was added and incubated for 4 h. Next, DMSO was added, and after 30 min, the colour intensities were measured using a microplate reader (Versamax, Molecular Devices, Inc., USA) at 490 nm.

[2] = tested on: Huh7 cells; assay: Cell proliferation assay (MTT), Huh7; assay type: cell-based, human; settings: for IC50: Homo sapiens, Huh-7, 48 h treatment, mean ± SEM of three independent experiments; for difference of anti-proliferative activity between Hep3B and Huh7: Huh7 versus Hep3B, 48 h
Experimental: as §1, §2

[3] = Cytotoxicity assay (MTT), H6c7; assay type: cell-based; settings: human, H6c7 normal pancreatic duct epithelial cells, 48 h treatment, mean ± SEM of three independent experiments, read-out: IC50 on cell viability (cytotoxicity), H6c7
Experimental: as §1
The cytotoxicity of the compounds was assessed by measuring the cell viability decrease using the MTT staining method. Briefly, H6c7 cells were seeded in a 96-well plate (Falcon, USA) at a density of 4 × 10^4 cells per well in keratinocyte serum-free medium. After 24 h, Cells were incubated with different concentrations (0.1, 1, 3, 10, 30, and 100) µM of each compound for 48 h, and the cell viability was measured using MTT assay. Optical density was measured at 540 nm using a microplate reader (BMG LABTECH).

[4] = tested on: Hep3B-xenografted CAM tumour model; assay: CAM (chick chorioallantoic membrane) tumour model implanted with Hep3B cells; assay type: in vivo
Experimental: Fertile chicken eggs were purchased from Byeolbichon Farm (Gyeongbuk, South Korea) and incubated at 37 °C and under 55% relative humidity. On the 9th day of egg incubation (post-fertilization), false air sac was generated on the relatively flat side of eggs by a negative pressure technique. A small window (1 cm^2) was created on the false air sac surface of the eggs by separating the shell and membrane beneath (technique) using a grinding wheel (Dremel, Racine, WI, USA). Next, Hep3B cells were loaded at a density of 1.5 × 10^6 cells/CAM with or without compound. After four days of drug treatment, the tumour weight, number of vessel branch points within the tumour region were analysed.

[5] = target: T1, human FGFR4 kinase (Homo sapiens, UniProt P22455); assay: FGFR4 kinase assay (Kinase HotSpot, Reaction Biology Corp.); assay type: biochemical; settings: for inhibition at 1 µM: fixed concentration 1 μM, mean of two independent experiments; for inhibition at 0.01 µM: 0.01 μM concentration, two independent experiments
T1 construct: purchased Reaction Biology Corporation (Malvern, PA, USA), contract assay service
T1 sequence (P22455 22-802): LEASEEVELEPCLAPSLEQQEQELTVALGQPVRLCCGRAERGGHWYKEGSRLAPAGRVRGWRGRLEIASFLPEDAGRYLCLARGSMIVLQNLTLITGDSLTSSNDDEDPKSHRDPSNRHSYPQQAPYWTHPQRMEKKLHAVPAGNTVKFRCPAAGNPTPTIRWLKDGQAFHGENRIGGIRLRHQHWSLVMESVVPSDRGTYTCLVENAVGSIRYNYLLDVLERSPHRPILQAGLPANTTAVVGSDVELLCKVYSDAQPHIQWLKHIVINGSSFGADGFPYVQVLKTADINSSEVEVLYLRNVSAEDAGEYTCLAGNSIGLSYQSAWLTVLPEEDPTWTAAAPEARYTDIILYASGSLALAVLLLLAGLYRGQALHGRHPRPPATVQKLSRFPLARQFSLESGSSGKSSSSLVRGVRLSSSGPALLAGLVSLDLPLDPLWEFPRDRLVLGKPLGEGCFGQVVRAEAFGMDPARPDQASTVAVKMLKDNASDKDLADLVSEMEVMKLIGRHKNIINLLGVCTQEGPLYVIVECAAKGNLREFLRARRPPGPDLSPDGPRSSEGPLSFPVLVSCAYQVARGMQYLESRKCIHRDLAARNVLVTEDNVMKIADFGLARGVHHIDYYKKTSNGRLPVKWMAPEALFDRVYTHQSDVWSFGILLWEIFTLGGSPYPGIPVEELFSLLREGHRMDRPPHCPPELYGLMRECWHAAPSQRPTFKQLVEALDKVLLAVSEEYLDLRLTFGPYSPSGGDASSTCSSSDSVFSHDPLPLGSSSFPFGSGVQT
Experimental: A FGFR4 kinase assay was performed at the Reaction Biology Corporation (Malvern, PA, USA) using a Kinase HotSpotSM assay platform (www.reactionbiology.com, last accessed at 19/10/2020). Briefly, human FGFR4 kinase (5–10 mU), peptide substrate, and poly[Glu:Tyr] (4:1) 0.2 mg/ml were prepared in a reaction buffer with a final volume of 25 µL. The compounds were delivered into the reaction, followed ∼20 min. later by the addition of a mixture of ATP and [γ-^33P-ATP] (specific activity approx. 500 cpm/pmol, concentration as required) to a final concentration of 10 µM. After incubation for 40 min. at 25 °C, the reaction was stopped by the addition of a 3% phosphoric acid solution. Then, the reaction was spotted onto a P30 filtermat, and unbound phosphate was removed by washing 3 times for 5 min in 75 mM phosphoric acid and once in methanol prior to drying and scintillation counting. […] IC50 values and curve fits were obtained using GraphPad Prism 5 software.

[6] = target: T2, FGFR1 (Homo sapiens, UniProt P11362); assay: FGFR1 ADP-glow kinase assay; assay type: biochemical
T2 construct: purchased Promega, WI, USA
T2 sequence (P11362 22-822): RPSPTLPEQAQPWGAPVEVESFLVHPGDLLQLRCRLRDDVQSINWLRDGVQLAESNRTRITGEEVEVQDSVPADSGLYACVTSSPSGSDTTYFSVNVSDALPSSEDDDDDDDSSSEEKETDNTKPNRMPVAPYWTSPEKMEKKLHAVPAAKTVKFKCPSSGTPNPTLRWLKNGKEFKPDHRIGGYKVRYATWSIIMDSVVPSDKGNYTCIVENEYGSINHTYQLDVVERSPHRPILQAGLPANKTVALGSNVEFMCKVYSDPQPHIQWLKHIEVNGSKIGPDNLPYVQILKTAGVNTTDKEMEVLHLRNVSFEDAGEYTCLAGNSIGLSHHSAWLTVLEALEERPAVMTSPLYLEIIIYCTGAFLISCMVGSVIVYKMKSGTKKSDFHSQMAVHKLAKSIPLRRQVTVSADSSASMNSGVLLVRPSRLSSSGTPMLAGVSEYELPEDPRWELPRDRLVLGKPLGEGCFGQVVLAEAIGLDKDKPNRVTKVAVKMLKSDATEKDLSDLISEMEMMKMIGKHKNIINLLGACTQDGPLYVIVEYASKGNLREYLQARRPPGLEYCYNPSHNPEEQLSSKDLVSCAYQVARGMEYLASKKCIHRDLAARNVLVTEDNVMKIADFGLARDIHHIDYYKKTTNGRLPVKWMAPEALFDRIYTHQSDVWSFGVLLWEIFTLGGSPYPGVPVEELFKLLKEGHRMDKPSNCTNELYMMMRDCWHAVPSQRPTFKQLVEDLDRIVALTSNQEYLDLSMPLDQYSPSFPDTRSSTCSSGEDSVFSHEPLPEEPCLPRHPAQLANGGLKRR
Experimental: (§3) FGFR1 ∼ 3 kinase assays were performed using the adenosine diphosphate (ADP)-glow kinase assay kit of FGFR1, FGFR2, and FGFR3 kinase enzyme systems (Promega, WI, USA) in accordance with the manufacturer’s instructions. […] The reaction was carried out at 25 °C for 1 h in a total volume of 25 µL. Subsequently, 25 µL of ADP-Glow reagent was added to the mixture, and then incubated for 40 min at 25 °C. After the addition of 50 µL of ADP detection reagents for 30 min at 25 °C, luminescence was measured using a Fluostar Omega microplate reader (BMG LABTECH GmbH, Ortenberg, Germany).

[7] = target: T3, FGFR2 (Homo sapiens, UniProt P21802); assay: FGFR2 ADP-glow kinase assay; assay type: biochemical
T3 construct: purchased Promega, WI, USA
T3 sequence (P21802 22-821): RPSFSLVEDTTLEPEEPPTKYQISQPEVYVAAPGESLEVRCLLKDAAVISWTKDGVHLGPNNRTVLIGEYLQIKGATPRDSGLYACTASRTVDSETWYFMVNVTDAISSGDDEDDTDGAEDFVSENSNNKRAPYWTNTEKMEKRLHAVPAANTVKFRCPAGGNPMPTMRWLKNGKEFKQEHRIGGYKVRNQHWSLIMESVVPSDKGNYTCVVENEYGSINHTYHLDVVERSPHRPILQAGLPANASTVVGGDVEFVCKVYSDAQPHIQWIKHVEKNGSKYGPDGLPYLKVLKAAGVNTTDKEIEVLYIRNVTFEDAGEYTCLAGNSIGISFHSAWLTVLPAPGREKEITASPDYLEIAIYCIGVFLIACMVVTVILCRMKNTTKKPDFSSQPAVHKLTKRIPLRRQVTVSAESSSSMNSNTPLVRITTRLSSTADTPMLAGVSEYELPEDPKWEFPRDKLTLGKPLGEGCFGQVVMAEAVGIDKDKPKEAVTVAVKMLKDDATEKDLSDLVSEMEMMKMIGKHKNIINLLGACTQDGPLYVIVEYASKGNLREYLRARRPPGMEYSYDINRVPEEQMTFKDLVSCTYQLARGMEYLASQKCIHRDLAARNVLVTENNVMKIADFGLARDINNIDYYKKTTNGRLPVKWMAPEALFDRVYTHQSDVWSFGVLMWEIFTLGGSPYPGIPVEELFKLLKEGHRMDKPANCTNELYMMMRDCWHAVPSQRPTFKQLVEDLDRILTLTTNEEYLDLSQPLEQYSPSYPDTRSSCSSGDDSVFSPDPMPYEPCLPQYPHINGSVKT
Experimental: as §3

[8] = target: T4, FGFR3 (Homo sapiens, UniProt P22607); assay: FGFR3 ADP-glow kinase assay; assay type: biochemical
T4 construct: purchased Promega, WI, USA
T4 sequence (P22607 23-806): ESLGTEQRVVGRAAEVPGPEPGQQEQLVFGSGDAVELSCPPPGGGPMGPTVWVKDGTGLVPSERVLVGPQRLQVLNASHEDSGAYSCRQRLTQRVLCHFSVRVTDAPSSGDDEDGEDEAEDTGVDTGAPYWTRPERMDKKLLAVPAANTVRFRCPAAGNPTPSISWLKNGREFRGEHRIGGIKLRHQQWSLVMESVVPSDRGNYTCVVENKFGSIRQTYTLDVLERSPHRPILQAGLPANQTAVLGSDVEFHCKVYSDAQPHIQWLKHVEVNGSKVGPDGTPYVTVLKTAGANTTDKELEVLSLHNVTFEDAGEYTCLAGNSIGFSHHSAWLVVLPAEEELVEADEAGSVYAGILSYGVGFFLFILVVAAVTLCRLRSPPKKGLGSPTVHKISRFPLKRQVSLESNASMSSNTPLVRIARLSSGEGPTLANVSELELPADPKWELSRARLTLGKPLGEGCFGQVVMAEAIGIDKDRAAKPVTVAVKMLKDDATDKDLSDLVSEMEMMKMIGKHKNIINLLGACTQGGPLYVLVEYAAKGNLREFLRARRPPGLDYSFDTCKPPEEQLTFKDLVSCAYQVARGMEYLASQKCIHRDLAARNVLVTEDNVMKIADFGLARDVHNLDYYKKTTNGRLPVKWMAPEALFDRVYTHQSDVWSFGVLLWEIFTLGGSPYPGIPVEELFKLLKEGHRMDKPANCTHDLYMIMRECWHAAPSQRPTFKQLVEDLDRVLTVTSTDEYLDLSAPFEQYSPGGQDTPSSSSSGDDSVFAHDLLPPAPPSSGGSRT
Experimental: as §3

Compound: C=CC(=O)Nc1cccc(C)c1Nc1ncc2cc(-c3c(Cl)c(OC)cc(OC)c3Cl)ccc2n1 [Compound 1, reference compound]
- IC50 [1]: 900 ± 100 nM
- IC50 [2]: 7100 ± 5000 nM
- difference of anti-proliferative activity between Hep3B and Huh7 [2]: 7 fold
- IC50 at 48 h [3]: 13400 nM
- tumour growth ([4]; four days after Hep3B xenograft on CAM): dose-dependently inhibited
- tumour-induced angiogenesis ([4]; number of new vessel branches on CAM, four days): significantly blocked

Compound: C=CC(=O)Nc1ccc(N2CCN(CC)CC2)cc1Nc1nc(C)c(OCc2c(F)c(OC)cc(OC)c2F)c(C)n1 [Compound 6AA]
- inhibition at 1 µM [5]: 10.3%

Compound: C=CC(=O)Nc1cn(C)nc1Nc1nc(C)c(OCc2c(F)c(OC)cc(OC)c2F)c(C)c1C [Compound 6A]
- IC50 ([5]; 7 different concentrations, three independent experiments): 190 nM
- inhibition at 1 µM [5]: 62.8%
- Ratio against FGFR4 (FGFR1) ([6]; ratio of FGFR1 to FGFR4 inhibitory activity): 8.2
- IC50 ([6]; three independent experiments): 1560 nM and 1570 nM
- Ratio against FGFR4 (FGFR2) ([7]; ratio of FGFR2 to FGFR4 inhibitory activity): 6.0
- IC50 ([7]; three independent experiments): 1150 nM
- Ratio against FGFR4 (FGFR3) ([8]; ratio of FGFR3 to FGFR4 inhibitory activity): 1.5
- IC50 ([8]; three independent experiments): 277 nM
- fold less potent than compound 1, Hep3B IC50 ([1]; 48 h): 28 fold
- IC50 [1]: 25200 nM
- IC50 [2]: 21300 ± 6000 nM
- difference of anti-proliferative activity between Hep3B and Huh7 [2]: did not show a significant difference
- IC50 at 48 h [3]: > 100000 nM

Compound: C=CC(=O)Nc1ccc(N2CCN(CC)CC2)cc1Nc1nc(C)c(OCc2c(Cl)c(OC)cc(OC)c2Cl)c(C)n1 [Compound 6BB]
- inhibition at 1 µM [5]: 5.4%

Compound: C=CC(=O)Nc1cn(C)nc1Nc1nc(C)c(OCc2c(Cl)c(OC)cc(OC)c2Cl)c(C)c1C [Compound 6B]
- inhibition at 1 µM [5]: 16.9%

Compound: C=CC(=O)Nc1cn(C)nc1Nc1nc(C)c(OCc2c(F)c(OC)cc(OC)c2F)c(C)n1 [Compound 6C]
- inhibition at 1 µM [5]: 22%

Compound: C=CC(=O)Nc1cn(C)nc1Nc1nc(C)c(OCc2c(Cl)c(OC)cc(OC)c2Cl)c(C)n1 [Compound 6D]
- inhibition at 1 µM [5]: 8%

Compound: C=CC(=O)Nc1cccc(C)c1Nc1nc(C)c(OCc2c(F)c(OC)cc(OC)c2F)c(C)c1C [Compound 6E]
- inhibition at 0.01 µM [5]: 5%
- inhibition at 1 µM [5]: 7.2%

Compound: C=CC(=O)Nc1cccc(C)c1Nc1nc(C)c(OCc2c(Cl)c(OC)cc(OC)c2Cl)c(C)c1C [Compound 6F]
- inhibition at 1 µM [5]: 5.4%

Compound: C=CC(=O)Nc1cccc(C)c1Nc1nc(C)c(OCc2c(F)c(OC)cc(OC)c2F)c(C)n1 [Compound 6G]
- inhibition at 0.01 µM [5]: 3.3%
- inhibition at 1 µM [5]: 24.8%

Continued, values first:

- inhibition at 1 µM [5]: 14%
Compound: C=CC(=O)Nc1cccc(C)c1Nc1nc(C)c(OCc2c(Cl)c(OC)cc(OC)c2Cl)c(C)n1 [Compound 6H]

- inhibition at 1 µM [5]: 9.7%
Compound: C=CC(=O)Nc1ccc(Nc2nc(C)c(OCc3c(F)c(OC)cc(OC)c3F)c(C)c2C)c(C)c1 [Compound 6I]

- inhibition at 1 µM [5]: 5.9%
Compound: C=CC(=O)Nc1ccc(Nc2nc(C)c(OCc3c(Cl)c(OC)cc(OC)c3Cl)c(C)c2C)c(C)c1 [Compound 6J]

- inhibition at 1 µM [5]: 4.9%
Compound: C=CC(=O)Nc1ccc(Nc2nc(C)c(OCc3c(F)c(OC)cc(OC)c3F)c(C)n2)c(C)c1 [Compound 6K]

- inhibition at 1 µM [5]: 3.6%
Compound: C=CC(=O)Nc1ccc(Nc2nc(C)c(OCc3c(Cl)c(OC)cc(OC)c3Cl)c(C)n2)c(C)c1 [Compound 6L]
